Assay type in all cases: functional, organism-based
Holding throughout (settings): Mus musculus

Experiment [1] relates to L1210. The experiment in a line: Compound was tested for antitumor activity against L1210 Leukemia in mice at 50 mg/kg dose upon intraperitoneal administration: Toxic. On the set-up: dose 50 mg/kg.
In experiment [2] the test system is L1210. The experiment can be described thus: Compound was tested for antitumor activity against L1210 Leukemia in mice at 25 mg/kg dose upon intraperitoneal administration: Toxic. On the set-up: dose 25 mg/kg.
Experiment [3] concerns L1210. The experiment can be described thus: Compound was tested for antitumor activity against L1210 Leukemia in mice at 12.5 mg/kg dose upon intraperitoneal administration. Details: dose 12.5 mg/kg.
Experiment [4] deals with L1210. The experiment in a line: Compound was tested for antitumor activity against L1210 Leukemia in mice at 100 mg/kg dose upon intraperitoneal administration. Details: dose 100 mg/kg.
The subject of experiment [5] is L1210. The experiment can be described thus: Compound was tested for antitumor activity against L1210 Leukemia in mice at 6.25 mg/kg dose upon intraperitoneal administration. On the set-up: dose 6.25 mg/kg.
Experiment [6] concerns L1210. The experiment in a line: Compound was tested for antitumor activity against L1210 Leukemia in mice at 25 mg/kg dose upon intraperitoneal administration. Details: dose 25 mg/kg.
Experiment [7] relates to L1210. The experiment can be described thus: Compound was tested for antitumor activity against L1210 Leukemia in mice at 50 mg/kg dose upon intraperitoneal administration. On the set-up: dose 50 mg/kg.
The subject of experiment [8] is L1210. The experiment in a line: Compound was tested for antitumor activity against L1210 Leukemia in mice at 3.1 mg/kg dose upon intraperitoneal administration. On the set-up: dose 3.1 mg/kg.
Experiment [9] concerns L1210. The experiment can be described thus: Compound was tested for antitumor activity against L1210 Leukemia in mice at 1.5 mg/kg dose upon intraperitoneal administration. Details: dose 1.5 mg/kg.
The subject of experiment [10] is L1210. The experiment in a line: Compound was tested for antitumor activity against L1210 Leukemia in mice at 12.5 mg/kg dose upon intraperitoneal administration: Toxic. On the set-up: dose 12.5 mg/kg.

By T/C is commonly meant the result in the treated group divided by that in the control group, in per cent.

Several values for one entry are separate records, joined by “and”; a condition that tells them apart may be missing. Identical values can stand only once.

As to “(2R,3R)-2,3-dihydroxy-1,4-diaminobutane Platinum (II) complex”, the Activity result with L1210 [1] and in the experiment on L1210 [2] was “Toxic” in each case. Further, the T/C was 118% and 131% in the experiment with L1210 [3]; 195% in the experiment with L1210 [4]; 125% and 135% in the experiment on L1210 [5]; 148% with L1210 [6].
As to CARBOPLATIN, the T/C with L1210 [7] came to 196%; in the experiment with L1210 [3], 125%; with L1210 [4] it was 197%; in the experiment on L1210 [5], 107%; in the experiment with L1210 [6], 148%.
CISPLATIN: the T/C came to 167% in the experiment with L1210 [8], 142% in the experiment on L1210 [9] and 82% in the experiment with L1210 [5]. Besides, the Activity entry in the experiment on L1210 [2] and in the experiment with L1210 [10] was “Toxic” throughout.
